Test results: patent US10870647B2, “Imidazopyridine derivative, method for preparing same, and pharmaceutical composition containing same as active ingredient for preventing or treating cancer” (DAEGU-GYEONGBUK MEDICAL INNOVATION FOUNDATION, priority 2016, dated 2020)

What was measured:
Assay in all cases: Kinase selectivity, scanMAX Kinase assay panel (DiscoverX), % control at 1 uM
Format in all cases: binding
[1] = molecular target: T1, scanMAX Kinase assay panel (Homo sapiens, UniProt P28482); details: ERK2; 1 uM; read-out: Percent Control (%)
T1 construct: purchased DiscoverX
T1 sequence (P28482 whole entry): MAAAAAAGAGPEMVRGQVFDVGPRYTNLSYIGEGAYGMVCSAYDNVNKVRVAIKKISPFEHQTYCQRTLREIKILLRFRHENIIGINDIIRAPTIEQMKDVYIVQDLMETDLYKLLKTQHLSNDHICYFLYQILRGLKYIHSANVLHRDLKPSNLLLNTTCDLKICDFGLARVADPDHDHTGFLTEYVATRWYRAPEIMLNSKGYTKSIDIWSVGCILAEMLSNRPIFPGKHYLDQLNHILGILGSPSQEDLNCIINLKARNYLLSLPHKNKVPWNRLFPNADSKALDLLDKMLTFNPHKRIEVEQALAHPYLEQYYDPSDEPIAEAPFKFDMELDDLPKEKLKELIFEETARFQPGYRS
In short: (§1)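 Single-point screen at 1 uM compound in DMSO. Lower % control means stronger inhibition, with the cutoff for activity set at <35%.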

[2] = molecular target: T2, scanMAX Kinase assay panel (Homo sapiens, UniProt P42336, M1043I); details: PIK3CA (M1043I); 1 uM; read-out: Percent Control (%)
T2 construct: purchased DiscoverX
T2 sequence (P42336 whole entry M1043I): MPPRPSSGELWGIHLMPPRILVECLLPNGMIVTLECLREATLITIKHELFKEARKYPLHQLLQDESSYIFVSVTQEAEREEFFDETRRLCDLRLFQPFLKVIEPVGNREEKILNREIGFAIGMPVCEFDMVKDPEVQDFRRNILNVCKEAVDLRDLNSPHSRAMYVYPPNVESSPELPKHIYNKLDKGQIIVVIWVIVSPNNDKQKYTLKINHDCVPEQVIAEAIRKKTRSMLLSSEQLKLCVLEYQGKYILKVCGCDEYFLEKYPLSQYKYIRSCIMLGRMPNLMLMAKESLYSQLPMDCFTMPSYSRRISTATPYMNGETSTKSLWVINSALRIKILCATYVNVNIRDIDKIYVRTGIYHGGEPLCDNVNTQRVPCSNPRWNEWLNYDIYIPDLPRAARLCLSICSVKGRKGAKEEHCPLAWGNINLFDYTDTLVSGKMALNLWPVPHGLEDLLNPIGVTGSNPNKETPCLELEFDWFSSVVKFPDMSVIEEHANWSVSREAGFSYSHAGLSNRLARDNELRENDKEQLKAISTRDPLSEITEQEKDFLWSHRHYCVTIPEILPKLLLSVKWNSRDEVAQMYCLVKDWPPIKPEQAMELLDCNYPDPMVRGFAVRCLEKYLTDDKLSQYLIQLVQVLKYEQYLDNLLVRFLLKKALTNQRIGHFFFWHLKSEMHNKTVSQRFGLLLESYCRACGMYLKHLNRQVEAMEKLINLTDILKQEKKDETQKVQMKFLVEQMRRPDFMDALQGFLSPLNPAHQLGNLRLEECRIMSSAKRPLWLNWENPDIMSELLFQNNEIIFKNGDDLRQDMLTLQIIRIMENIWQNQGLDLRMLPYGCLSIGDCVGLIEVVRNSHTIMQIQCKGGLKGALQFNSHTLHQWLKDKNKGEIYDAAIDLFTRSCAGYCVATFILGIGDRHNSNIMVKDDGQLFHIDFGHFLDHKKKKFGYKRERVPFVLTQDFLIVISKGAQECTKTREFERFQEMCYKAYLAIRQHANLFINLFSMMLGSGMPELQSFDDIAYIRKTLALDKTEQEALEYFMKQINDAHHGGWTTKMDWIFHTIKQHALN
In short: as §1

[3] = molecular target: T3, scanMAX Kinase assay panel (Homo sapiens, UniProt Q14289); details: PYK2; 1 uM; read-out: Percent Control (%)
T3 construct: purchased DiscoverX
T3 sequence (Q14289 whole entry): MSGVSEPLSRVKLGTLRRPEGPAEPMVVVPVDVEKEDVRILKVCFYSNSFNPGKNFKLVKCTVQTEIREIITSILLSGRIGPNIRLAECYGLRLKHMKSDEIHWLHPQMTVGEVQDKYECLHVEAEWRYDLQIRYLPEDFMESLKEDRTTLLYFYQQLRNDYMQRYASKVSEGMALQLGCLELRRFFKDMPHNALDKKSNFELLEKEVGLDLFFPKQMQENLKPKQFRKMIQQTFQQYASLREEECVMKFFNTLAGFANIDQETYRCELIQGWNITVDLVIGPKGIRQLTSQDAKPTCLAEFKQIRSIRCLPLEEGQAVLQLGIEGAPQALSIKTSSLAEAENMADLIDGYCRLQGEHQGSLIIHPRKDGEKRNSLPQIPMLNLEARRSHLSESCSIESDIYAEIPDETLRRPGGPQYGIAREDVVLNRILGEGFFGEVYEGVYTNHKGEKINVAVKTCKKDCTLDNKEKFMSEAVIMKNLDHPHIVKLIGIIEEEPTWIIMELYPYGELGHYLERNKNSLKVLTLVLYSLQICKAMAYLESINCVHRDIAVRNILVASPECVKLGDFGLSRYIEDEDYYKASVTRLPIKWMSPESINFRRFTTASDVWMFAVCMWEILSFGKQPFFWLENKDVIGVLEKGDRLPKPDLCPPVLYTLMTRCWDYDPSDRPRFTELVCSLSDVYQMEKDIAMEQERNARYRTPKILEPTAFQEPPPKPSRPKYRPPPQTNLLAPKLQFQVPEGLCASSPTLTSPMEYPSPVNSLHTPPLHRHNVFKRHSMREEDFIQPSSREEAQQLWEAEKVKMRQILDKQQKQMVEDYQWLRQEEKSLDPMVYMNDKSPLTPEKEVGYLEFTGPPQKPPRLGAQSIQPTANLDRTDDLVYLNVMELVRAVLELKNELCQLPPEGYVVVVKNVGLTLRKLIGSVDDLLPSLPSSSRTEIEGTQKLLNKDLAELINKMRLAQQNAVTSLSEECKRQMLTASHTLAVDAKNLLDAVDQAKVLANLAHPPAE
In short: as §1

[4] = molecular target: T4, scanMAX Kinase assay panel (Homo sapiens, UniProt Q15759); details: p38-beta; 1 uM; read-out: Percent Control (%)
T4 construct: purchased DiscoverX
T4 sequence (Q15759 whole entry): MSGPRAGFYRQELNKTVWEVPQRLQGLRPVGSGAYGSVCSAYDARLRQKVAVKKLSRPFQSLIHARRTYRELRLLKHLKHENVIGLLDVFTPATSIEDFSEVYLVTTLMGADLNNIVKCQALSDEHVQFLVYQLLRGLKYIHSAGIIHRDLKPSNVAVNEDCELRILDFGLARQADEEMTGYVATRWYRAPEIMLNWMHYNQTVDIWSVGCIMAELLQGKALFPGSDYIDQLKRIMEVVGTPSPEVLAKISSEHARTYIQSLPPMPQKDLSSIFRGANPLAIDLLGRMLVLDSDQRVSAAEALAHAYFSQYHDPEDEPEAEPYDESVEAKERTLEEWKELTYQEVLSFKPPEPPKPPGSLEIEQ
In short: as §1

[5] = molecular target: T5, scanMAX Kinase assay panel (Homo sapiens, UniProt Q32MK0); details: MLCK; 1 uM; read-out: Percent Control (%)
T5 construct: purchased DiscoverX
T5 sequence (Q32MK0 1-819): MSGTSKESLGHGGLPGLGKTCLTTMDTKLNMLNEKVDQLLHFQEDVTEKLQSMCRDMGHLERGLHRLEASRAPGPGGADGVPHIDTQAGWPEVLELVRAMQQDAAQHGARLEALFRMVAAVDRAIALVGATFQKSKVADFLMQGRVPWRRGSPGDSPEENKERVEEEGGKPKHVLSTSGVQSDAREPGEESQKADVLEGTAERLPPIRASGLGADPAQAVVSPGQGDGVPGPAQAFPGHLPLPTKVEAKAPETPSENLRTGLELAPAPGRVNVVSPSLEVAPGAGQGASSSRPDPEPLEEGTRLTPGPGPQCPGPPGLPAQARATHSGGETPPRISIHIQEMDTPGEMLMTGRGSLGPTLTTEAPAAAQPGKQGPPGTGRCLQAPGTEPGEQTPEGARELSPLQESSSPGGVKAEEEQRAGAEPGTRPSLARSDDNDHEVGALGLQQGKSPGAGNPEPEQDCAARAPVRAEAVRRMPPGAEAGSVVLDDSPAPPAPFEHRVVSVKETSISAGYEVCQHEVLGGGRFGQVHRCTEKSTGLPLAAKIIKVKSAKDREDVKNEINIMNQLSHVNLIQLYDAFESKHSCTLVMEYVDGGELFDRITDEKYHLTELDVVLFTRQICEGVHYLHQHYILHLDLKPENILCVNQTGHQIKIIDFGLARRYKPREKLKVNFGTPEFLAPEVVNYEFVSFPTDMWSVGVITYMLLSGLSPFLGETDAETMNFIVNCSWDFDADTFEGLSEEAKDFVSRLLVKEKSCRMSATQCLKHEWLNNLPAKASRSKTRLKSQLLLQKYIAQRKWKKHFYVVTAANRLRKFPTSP
In short: as §1

[6] = molecular target: T6, scanMAX Kinase assay panel (Homo sapiens, UniProt Q7KZI7); details: MARK2; 1 uM; read-out: Percent Control (%)
T6 construct: purchased DiscoverX
T6 sequence (Q7KZI7 whole entry): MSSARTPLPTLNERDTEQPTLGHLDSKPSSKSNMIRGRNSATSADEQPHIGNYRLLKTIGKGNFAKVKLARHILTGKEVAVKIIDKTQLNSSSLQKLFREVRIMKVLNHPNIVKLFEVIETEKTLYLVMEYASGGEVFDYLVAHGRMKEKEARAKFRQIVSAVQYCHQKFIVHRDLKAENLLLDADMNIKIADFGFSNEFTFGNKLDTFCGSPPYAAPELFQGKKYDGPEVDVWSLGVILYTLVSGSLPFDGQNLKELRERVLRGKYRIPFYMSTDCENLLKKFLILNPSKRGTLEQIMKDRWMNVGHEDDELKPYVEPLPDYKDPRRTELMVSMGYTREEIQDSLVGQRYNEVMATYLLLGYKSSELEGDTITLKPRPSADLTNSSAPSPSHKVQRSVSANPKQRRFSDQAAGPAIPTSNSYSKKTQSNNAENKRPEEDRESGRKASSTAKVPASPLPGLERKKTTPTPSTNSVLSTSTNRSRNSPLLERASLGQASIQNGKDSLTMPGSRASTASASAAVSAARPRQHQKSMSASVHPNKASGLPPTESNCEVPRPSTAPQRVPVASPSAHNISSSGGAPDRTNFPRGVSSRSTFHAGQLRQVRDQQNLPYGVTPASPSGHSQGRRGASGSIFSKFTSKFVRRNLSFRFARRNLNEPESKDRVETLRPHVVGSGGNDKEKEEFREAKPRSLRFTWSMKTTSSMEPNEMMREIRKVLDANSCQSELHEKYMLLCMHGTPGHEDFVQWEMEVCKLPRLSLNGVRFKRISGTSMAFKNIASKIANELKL
In short: as §1

[7] = molecular target: T7, scanMAX Kinase assay panel (Homo sapiens, UniProt Q9NWZ3); details: IRAK4; 1 uM; read-out: Percent Control (%)
T7 construct: purchased DiscoverX
T7 sequence (Q9NWZ3 1-460): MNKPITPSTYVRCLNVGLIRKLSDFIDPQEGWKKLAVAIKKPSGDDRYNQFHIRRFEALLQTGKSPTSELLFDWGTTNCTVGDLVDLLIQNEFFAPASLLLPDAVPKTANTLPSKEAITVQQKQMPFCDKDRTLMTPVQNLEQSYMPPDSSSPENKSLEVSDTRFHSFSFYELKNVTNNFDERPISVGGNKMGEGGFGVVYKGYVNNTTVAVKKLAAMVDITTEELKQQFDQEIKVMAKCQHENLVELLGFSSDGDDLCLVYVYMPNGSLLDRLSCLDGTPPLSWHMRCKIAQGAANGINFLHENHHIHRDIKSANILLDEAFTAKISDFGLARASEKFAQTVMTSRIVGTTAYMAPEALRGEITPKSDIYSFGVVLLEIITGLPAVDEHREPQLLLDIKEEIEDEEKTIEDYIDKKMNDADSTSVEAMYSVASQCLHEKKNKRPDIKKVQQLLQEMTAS
In short: as §1

[8] = molecular target: T8, scanMAX Kinase assay panel (Homo sapiens, UniProt Q9Y243); details: AKT3; 1 uM; read-out: Percent Control (%)
T8 construct: purchased DiscoverX
T8 sequence (Q9Y243 whole entry): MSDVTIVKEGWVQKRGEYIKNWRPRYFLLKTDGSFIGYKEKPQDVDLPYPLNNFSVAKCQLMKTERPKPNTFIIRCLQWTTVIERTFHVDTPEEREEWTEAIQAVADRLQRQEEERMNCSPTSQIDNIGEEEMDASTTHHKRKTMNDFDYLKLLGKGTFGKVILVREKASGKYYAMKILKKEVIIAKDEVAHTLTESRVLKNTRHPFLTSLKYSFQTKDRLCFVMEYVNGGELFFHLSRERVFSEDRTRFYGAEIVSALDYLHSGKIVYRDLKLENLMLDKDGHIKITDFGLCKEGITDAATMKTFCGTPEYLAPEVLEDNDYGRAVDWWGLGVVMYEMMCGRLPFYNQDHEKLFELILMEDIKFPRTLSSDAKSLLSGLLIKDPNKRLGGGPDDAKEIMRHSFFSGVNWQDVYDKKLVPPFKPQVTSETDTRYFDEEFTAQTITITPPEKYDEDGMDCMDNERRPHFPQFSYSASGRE
In short: as §1

Compound | remaining binding at 1 µM [1] | remaining binding at 1 µM [2] | remaining binding at 1 µM [3] | remaining binding at 1 µM [4] | remaining binding at 1 µM [5] | remaining binding at 1 µM [6] | remaining binding at 1 µM [7] | remaining binding at 1 µM [8]
Cc1ccc(NC(=O)C2(C(=O)Nc3ccc(F)cc3)CC2)cc1C#Cc1cnc2c(Nc3cnn(C(C)C)c3)cccn12 [Example 78] | 100% | 100% | 100% | 88% | 100% | 89% | 100% | 95%
Cc1cn(-c2cc(NC(=O)c3ccc(C)c(C#Cc4cnc5c(Nc6cnn(C)c6)cccn45)c3)cc(C(F)(F)F)c2)cn1 [Example 12, 4-methyl-N-(3-(4-methyl-1H-imidazol-1-yl)-5-(trifluoromethyl)phenyl)-3-((8-((1-methyl-1H-pyrazol-4-yl)amino)imidazo[1,2-a]pyridin-3-yl)ethynyl)benzamide] | 92% | 100% | 29% | 6% | 91% | 99% | 81% | 99%
Cc1ccc(C(=O)Nc2ccc(CN3CCN(C)CC3)c(C(F)(F)F)c2)cc1C#Cc1cnc2c(Nc3cnn(C)c3)cccn12 [Example 1, 4-methyl-3-((8-((1-methyl-1H-pyrazol-4-yl)amino)imidazo[1,2-a]pyridin-3-yl)ethynyl)-N-(4-((4-methylpiperazin-1-yl)methyl)-3-(trifluoromethyl)phenyl)benzamide] | 100% | 90% | 4% | 0% | 90% | 73% | 22% | 99%
